19 molecules from patent US8513220B2, “Aromatic compounds having sphingosine-1-phosphonate (S1P) receptor activity” (Allergan, Inc., priority 2010, dated 2013) can be followed below.

Usually EC50 stands for the midpoint of the concentration-response curve.

One assay addresses T1, human S1P1 receptor (Homo sapiens, UniProt P21453).
T1 construct: expressed in transfected cells; membranes used
Kind of assay: GTP γ35S binding assay for S1P1 activity. In kind it is biochemical. The settings on record: for activation at 5 µM: S1P1 receptor GTPγ^35S, read-out: % STIMULATION @ 5 μM; for EC50: S1P1 receptor, membranes, compounds 0.08 to 5,000 nM, read-out: GTPγ^35S EC50. How it is done: Novel compounds were synthesized and tested for S1P1 activity using the GTP γ^35S binding assay. These compounds may be assessed for their ability to activate or block activation of the human S1P1 receptor in cells stably expressing the S1P1 receptor. GTP γ^35S binding was measured in the medium containing (mM) HEPES 25, pH 7.4, MgCl2 10, NaCl 100, dithitothreitol 0.5, digitonin 0.003%, 0.2 nM GTP γ^35S, and 5 μg membrane protein in a volume of 150 μl. Test compounds were included in the concentration range from 0.08 to 5,000 nM unless indicated otherwise. Membranes were incubated with 100 μM 5′-adenylylimmidodiphosphate for 30 min, and subsequently with 10 μM GDP for 10 min on ice. Drug solutions and membrane were mixed, and then reactions were initiated by adding GTP γ^35S and continued for 30 min at 25° C. Reaction mixtures were filtered over Whatman GF/B filters under vacuum, and washed three times with 3 mL of ice-cold buffer (HEPES 25, pH7.4, MgCl2 10 and NaCl 100). Filters were dried and mixed with scintillant, and counted for ^35S activity using a […]. Agonist-induced GTP γ^35S binding was obtained by subtracting that in the absence of agonist. Binding data were analyzed using a non-linear regression method. In case of antagonist assay, the reaction mixture contained 10 nM S1P in the presence of test antagonist at concentrations ranging from 0.08 to 5000 nM.
Activity potency: S1P1 receptor from GTP γ^35S: nM, (EC50)
(In general: Binding of GTPγS marks nucleotide exchange on a G protein.)

Another assay concerns lymphocytes in blood. Kind of assay: Lymphopenia assay in mice (in vivo blood lymphocyte depletion). The settings on record: female C57BL6 mice, 10 mg/Kg subcutaneous. How it is done:
Test drugs are prepared in a solution containing 3% (w/v) 2-hydroxy propyl β-cyclodextrin (HPBCD) and 1% DMSO to a final concentration of 1 mg/ml, and subcutaneously injected to female C57BL6 mice (CHARLES RIVERS) weighing 20-25 g at the dose of 10 mg/Kg. Blood samples are obtained by puncturing the submandibular skin with a Goldenrod animal lancet at 5, 24, 48, 72, and 96 hrs post drug application. Blood is collected into microvettes (SARSTEDT) containing EDTA tripotassium salt. Lymphocytes in blood samples are counted using a HEMAVET Multispecies Hematology System, HEMAVET HV950FS (Drew Scientific Inc.). (Hale, J. et al Bioorg. & Med. Chem. Lett. 14 (2004) 3351).
A lymphopenia assay in mice; as previously described, was employed to measure the in vivo blood lymphocyte depletion after dosing with: • (3-{[5-(4-Hexyl-phenyl)-6-thiophen-2-yl-pyridin-2-ylmethyl]-amino}-propyl)-phosphonic acid, Compound 2 (FIG. 1); • (3-{[6-(5-Fluoro-thiophen-2-yl)-5-(4-hexyl-phenyl)-pyridin-2-ylmethyl]-amino}-propyl)-phosphonic acid, Compound 3 (FIG. 2); • (3-{[5-(4-Hexyl-3-propyl-phenyl)-6-thiophen-2-yl-pyridin-2-ylmethyl]-amino}-propyl)-phosphonic acid, Compound 4 (FIG. 3); • [3-({5-[4-(3-Phenyl-propyl)-phenyl]-6-thiophen-2-yl-pyridin-2-ylmethyl}-amino)-propyl]-phosphonic acid, Compound 5 (FIG. 4); • (3-{[5-(4-Hexyl-phenyl)-6-thiophen-3-yl-pyridin-2-ylmethyl]-amino}-propyl)-phosphonic acid, Compound 6 (FIG. 5); • (3-{[5-(4-Hexyl-phenyl)-6-oxazol-4-yl-pyridin-2-ylmethyl]-amino}-propyl)-phosphonic acid, Compound 7 (FIG. 6); • (3-{[6-Furan-2-yl-5-(4-hexyl-phenyl)-pyridin-2-ylmethyl]-amino}-propyl)-phosphonic acid, Compound 9 (FIG. 7); • [3-({6-Phenyl-5-[4-(3-phenyl-propyl)-phenyl]-pyridin-2-ylmethyl}-amino)-propyl]-phosphonic acid, Compound 14 (FIGS. 8) and • (3-{[5-(4-Hexyl-3-propyl-phenyl)-6-phenyl-pyridin-2-ylmethyl]-amino}-propyl)-phosphonic acid, Compound 16 (FIG. 9).
These S1P agonist (or modulator) is useful for S1P-related diseases, and exemplified by the lymphopenia in vivo response. In general, test drugs Compound 3 and 16 were prepared in a solution containing 3% (w/v) 2-hydroxy propyl β-cyclodextrin (HPBCD) and 1% DMSO to a final concentration of 1 mg/ml, and subcutaneously injected to female C57BL6 mice (CHARLES RIVERS) weighing 20-25 g at the dose of 10 mg/Kg. Blood samples were obtained by puncturing the submandibular skin with a Goldenrod animal lancet at 5, 24, 48, and 72 hrs post drug application. Blood was collected into microvettes (SARSTEDT) containing EDTA tripotassium salt. Lymphocytes in blood samples were counted using a HEMAVET Multispecies Hematology System, HEMAVET HV950FS (Drew Scientific Inc.). Results are shown in the following figures below that depict lowered lymphocyte count after 5 hours (<1 number of lymphocytes 10^3/μL blood).

T1 sequence (P21453 whole entry): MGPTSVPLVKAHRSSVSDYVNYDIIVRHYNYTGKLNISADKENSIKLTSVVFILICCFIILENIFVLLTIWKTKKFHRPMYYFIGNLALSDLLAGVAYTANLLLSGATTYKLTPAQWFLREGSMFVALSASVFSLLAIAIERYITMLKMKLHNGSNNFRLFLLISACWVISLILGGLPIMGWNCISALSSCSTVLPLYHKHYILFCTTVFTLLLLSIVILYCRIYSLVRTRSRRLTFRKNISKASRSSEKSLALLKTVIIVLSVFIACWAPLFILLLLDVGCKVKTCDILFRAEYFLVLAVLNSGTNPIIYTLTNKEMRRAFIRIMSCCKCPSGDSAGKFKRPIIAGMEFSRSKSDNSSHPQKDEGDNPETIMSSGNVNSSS

On to `O=P(O)(O)CCCNCc1ccc(-c2ccc(CCC(F)(F)C(F)(F)C(F)(F)C(F)(F)F)cc2)c(-c2ccccc2)c1` [Compound 11, (3-{[4-(3,3,4,4,5,5,6,6,6-Nonafluoro-hexyl)-[1,1′;2′,1″]terphenyl-4′-ylmethyl]-amino}-propyl)-phosphonic acid], for which, on human S1P1 receptor, the activation at 5 µM is 71.8% and the EC50 turned out to be 416 nM.

`CCCCCCc1ccc(-c2ccc(CNCCCP(=O)(O)O)nc2-c2ccco2)cc1` [Compound 9, (3-{[6-Furan-2-yl-5-(4-hexyl-phenyl)-pyridin-2-ylmethyl]-amino}-propyl)-phosphonic acid]: the “number of lymphocytes found in the blood” value in the assay with lymphocytes in blood (after 48 h of drug application) is reported as “reduced”. Besides, at human S1P1 receptor, the activation at 5 µM stood at 88.6% and the EC50 is 0.44 nM.

As for `CCCCCCc1ccc(-c2ccc(CNCCCP(=O)(O)O)cc2-c2ccccc2)cn1` [Compound 20, (3-{[6-(6-Hexyl-pyridin-3-yl)-biphenyl-3-ylmethyl]-amino}-propyl)-phosphonic acid], at human S1P1 receptor, the activation at 5 µM was determined as 94.7% and the EC50 was 833 nM.

For the molecule `CCCCCOc1ccc(-c2ccc(CNCCCP(=O)(O)O)nc2-c2cccc(F)c2)cc1` [Compound 17, (3-{[6-(3-Fluoro-phenyl)-5-(4-pentyloxy-phenyl)-pyridin-2-ylmethyl]-amino}-propyl)-phosphonic acid], on human S1P1 receptor, the activation at 5 µM was determined as 83.9% and the EC50 came to 2200 nM.

Regarding `O=P(O)(O)CCCNCc1ccc(-c2ccc(CCCc3ccccc3)cc2)c(-c2cccc(Cl)c2)n1` [Compound 13, [3-({6-(3-Chloro-phenyl)-5-[4-(3-phenyl-propyl)-phenyl]-pyridin-2-ylmethyl}-amino)-propyl]-phosphonic acid], on human S1P1 receptor, the activation at 5 µM worked out at 64% and the EC50 is 2430 nM.

Consider `CCCCCCc1ccc(-c2ccc(CNCCCP(=O)(O)O)nc2-c2ccccc2)cc1CCC` [Compound 16, (3-{[5-(4-Hexyl-3-propyl-phenyl)-6-phenyl-pyridin-2-ylmethyl]-amino}-propyl)-phosphonic acid], for which the “number of lymphocytes found in the blood” value with lymphocytes in blood (after 5 h of drug application) is on record as “reduced”. Further, at human S1P1 receptor, the activation at 5 µM is 73.1% and the EC50 was found to be 29.6 nM.

Regarding `CCCCCCc1ccc(-c2ccc(CNCCCP(=O)(O)O)nc2-c2ccc(F)s2)cc1` [Compound 3, (3-{[6-(5-Fluoro-thiophen-2-yl)-5-(4-hexyl-phenyl)-pyridin-2-ylmethyl]-amino}-propyl)-phosphonic acid], in the assay with lymphocytes in blood (after 72 h of drug application), the “number of lymphocytes found in the blood” value is reported as “reduced”. At human S1P1 receptor, the activation at 5 µM turned out to be 111% and the EC50 was 25.1 nM.

Regarding `CCCCCOc1ccc(-c2ccc(CNCCCP(=O)(O)O)nc2-c2ccc(F)cc2)cc1` [Compound 18, (3-{[6-(4-Fluoro-phenyl)-5-(4-pentyloxy-phenyl)-pyridin-2-ylmethyl]-amino}-propyl)-phosphonic acid], on human S1P1 receptor, the activation at 5 µM came to 104% and the EC50 is 472 nM.

As for `CCCCCCc1ccc(-c2ccc(CNCCCP(=O)(O)O)nc2-c2cocn2)cc1` [Compound 7, (3-{[5-(4-Hexyl-phenyl)-6-oxazol-4-yl-pyridin-2-ylmethyl]-amino}-propyl)-phosphonic acid], the “number of lymphocytes found in the blood” value in the assay on lymphocytes in blood (after 24 h of drug application) is on record as “reduced”. Further, at human S1P1 receptor, the activation at 5 µM worked out at 86.1% and the concentration for a half-maximal effect (EC50) was determined as 0.87 nM.

Turning to `O=P(O)(O)CCCNCc1ccc(-c2ccc(CCCc3ccccc3)cc2)c(-c2ccccc2)n1` [Compound 14, [3-({6-Phenyl-5-[4-(3-phenyl-propyl)-phenyl]-pyridin-2-ylmethyl}-amino)-propyl]-phosphonic acid], the “number of lymphocytes found in the blood” value with lymphocytes in blood (after 5 h of drug application) is on record as “reduced”. Besides, at human S1P1 receptor, the activation at 5 µM amounted to 86.6% and the EC50 is 93.8 nM.

Take `CCCCCCc1ccc(-c2ccc(CNCCCP(=O)(O)O)nc2-c2nccs2)cc1` [Compound 8, (3-{[5-(4-Hexyl-phenyl)-6-thiazol-2-yl-pyridin-2-ylmethyl]-amino}-propyl)-phosphonic acid]: at human S1P1 receptor, the activation at 5 µM was 89.3% and the EC50 came out at 6.52 nM.

`O=P(O)(O)CCCNCc1ccc(-c2ccc(CCCc3ccccc3)cc2)c(-c2ccccc2)c1` [Compound 12, (3-{[4-(3-Phenyl-propyl)-[1,1′;2′,1″]terphenyl-4′-ylmethyl]-amino}-propyl)-phosphonic acid]: at human S1P1 receptor, the activation at 5 µM amounted to 64% and the EC50 amounted to 625 nM.

As for `CCCCCCc1ccc(-c2ccc(CNCCCP(=O)(O)O)cc2-c2ccccc2)nc1` [Compound 1, (3-{[6-(5-Hexyl-pyridin-2-yl)-biphenyl-3-ylmethyl]-amino}-propyl)-phosphonic acid], at human S1P1 receptor, the activation at 5 µM turned out to be 79.4% and the EC50 turned out to be 317 nM.

Consider `CCCCCCc1ccc(-c2ccc(CNCCCP(=O)(O)O)nc2-c2ccccc2)cc1` [Compound 27, (3-{[5-(4-Hexyl-phenyl)-6-phenyl-pyridin-2-ylmethyl]-amino}-propyl)-phosphonic acid], for which, on human S1P1 receptor, the activation at 5 µM stood at 112% and the EC50 is 252 nM.

On to `CCCCCCCCc1ccc(-c2ccc(CNCCCP(=O)(O)O)cc2-c2ccccc2)cn1` [Compound 22, (3-{[6-(6-Octyl-pyridin-3-yl)-biphenyl-3-ylmethyl]-amino}-propyl)-phosphonic acid], for which, on human S1P1 receptor, the activation at 5 µM came to 89.7% and the EC50 came out at 771 nM.

On to `CCCCCCc1ccc(-c2ccc(CNCCCP(=O)(O)O)nc2-c2cccs2)cc1` [Compound 2, (3-{[5-(4-Hexyl-phenyl)-6-thiophen-2-yl-pyridin-2-ylmethyl]-amino}-propyl)-phosphonic acid], for which the “number of lymphocytes found in the blood” value with lymphocytes in blood (after 24 h of drug application) is reported as “reduced”. Moreover, on human S1P1 receptor, the activation at 5 µM was found to be 68.1% and the EC50 came out at 5.26 nM.

For the molecule `CCCCCCc1ccc(-c2ccc(CNCCCP(=O)(O)O)nc2-c2cccs2)cc1CCC` [Compound 4, (3-{[5-(4-Hexyl-3-propyl-phenyl)-6-thiophen-2-yl-pyridin-2-ylmethyl]-amino}-propyl)-phosphonic acid], in the assay on lymphocytes in blood (after 72 h of drug application), the “number of lymphocytes found in the blood” value is “reduced”. For the same molecule, at human S1P1 receptor, the activation at 5 µM was found to be 79.1% and the EC50 turned out to be 7.72 nM.

Regarding `CCCCCCc1ccc(-c2ccc(CNCCCP(=O)(O)O)nc2-c2ccsc2)cc1` [Compound 6, (3-{[5-(4-Hexyl-phenyl)-6-thiophen-3-yl-pyridin-2-ylmethyl]-amino}-propyl)-phosphonic acid], the “number of lymphocytes found in the blood” value with lymphocytes in blood (after 48 h of drug application) was “reduced”. In addition, on human S1P1 receptor, the activation at 5 µM was 76.9% and the EC50 worked out at 9.19 nM.

With `CCCCCOc1ccc(-c2ccc(CNCCCP(=O)(O)O)nc2-c2ccccc2)cc1` [Compound 19, (3-{[5-(4-Pentyloxy-phenyl)-6-phenyl-pyridin-2-ylmethyl]-amino}-propyl)-phosphonic acid], at human S1P1 receptor, the activation at 5 µM was 95.5% and the EC50 was found to be 358 nM.
